Test results as given in patent publication US4232148A, “6-Deoxyneamines” (The Upjohn Company, priority 1979, dated 1980).
Values after ≈ are worked out from the molar mass of the structure shown. Where two headings read alike, the source gives them in different places.

How the values were obtained:
Assay type in all cases: cell-based
S. aureus UC 76 = experiment: standard microplate test in BHI Agar, MIC; settings: Staphylococcus aureus, UC76, 20 h
Description: (§1) The compounds VII, XI, XVβ, XVα and XVI were tested in a standard microplate test in BHI (Brain Heart Infusion) Agar at a concentration of 1 mg./ml. and dilutions thereof at 37° incubation temperature. The end points are read at 20 hours. BHI Agar is supplied by Difco Laboratories, Detroit, Mich., U.S.A. and has the following compositions:
(§2) Calf brains, infusion from: 200 gm.
(§3) Beef heart, infusion from: 250 gm.
(§4) Bacto Proteose-peptone, Difco: 10 gm.
(§5) Bacto-Dextrose, Difco: 1 gm.
(§6) Disodium phosphate: 2.5 gm.

S. typhi UC 215 = experiment: standard microplate test in BHI Agar, MIC; settings: Salmonella enterica, BHI Agar, 37°, 20 hours
Description: as §1, §2, §3, §4, §5, §6

K. pneumoniae UC 58 = experiment: standard microplate test in BHI Agar, MIC; settings: Klebsiella pneumoniae, UC58, 20 h
Description: as §1, §2, §3, §4, §5, §6

S. pyogenes UC 152 = experiment: standard microplate test in BHI Agar, MIC; settings: Streptococcus pyogenes, UC152, 20 h
Description: as §1, §2, §3, §4, §5, §6

S. schottmuelleri UC 126 = experiment: standard microplate test in BHI Agar, MIC; settings: 37°, 20 hours
Description: as §1, §2, §3, §4, §5, §6

D. pneumoniae UC 41 = experiment: standard microplate test in BHI Agar, MIC; settings: Streptococcus pneumoniae, UC41, 37°, 20 hours, read-out: Minimal Inhibitory Concentration
Description: as §1, §2, §3, §4, §5, §6

E. coli UC 311 = experiment: standard microplate test in BHI Agar, MIC; settings: Escherichia coli, UC311, 20 h, read-out: Minimal Inhibitory Concentration
Description: as §1, §2, §3, §4, §5, §6

S. faecalis UC 694 = experiment: standard microplate test in BHI Agar, MIC; settings: Enterococcus faecalis, UC694, 20 h
Description: as §1, §2, §3, §4, §5, §6

P. mirabilis UC 6671 = experiment: standard microplate test in BHI Agar, MIC; settings: Proteus mirabilis, UC6671, 37°, 20 hours
Description: as §1, §2, §3, §4, §5, §6

P. morganii UC 3186 = experiment: standard microplate test in BHI Agar, MIC; settings: Morganella morganii, UC3186, 20 h
Description: as §1, §2, §3, §4, §5, §6

Ps. aeruginosa UC 95 [1] = experiment: standard microplate test in BHI Agar, MIC; settings: Pseudomonas aeruginosa, UC95, 20 h
Description: as §1, §2, §3, §4, §5, §6

P. rettgeri UC 339 = experiment: standard microplate test in BHI Agar, MIC; settings: Providencia rettgeri, UC339, 20 h
Description: as §1, §2, §3, §4, §5, §6

S. flexneri UC 143 = experiment: standard microplate test in BHI Agar, MIC; settings: Shigella flexneri, UC143, 37°, 20 hours
Description: as §1, §2, §3, §4, §5, §6

P. vulgaris UC 93 [2] = experiment: standard microplate test in BHI Agar, MIC; settings: Proteus vulgaris, UC93, 37°, 20 hours
Description: as §1, §2, §3, §4, §5, §6

E. coli UC 45 = experiment: standard microplate test in BHI Agar, MIC; settings: Escherichia coli, UC45, 37°, 20 hours, read-out: Minimum Inhibitory Concentration
Description: as §1, §2, §3, §4, §5, §6

S. marcescens UC 131 = experiment: standard microplate test in BHI Agar, MIC; settings: Serratia marcescens, UC131, 37°, 20 hours
Description: as §1, §2, §3, §4, §5, §6

S. gallinarum UC 265 = experiment: standard disc plate assay, zone of inhibition; settings: Salmonella enterica, read-out: Zones of Inhibition
Description: (§7) The compounds of formulas (V, VII, IX, XI, XIV, XVI, and XIX) are active as antibacterials and can be used in various environments to erradicate or control susceptible microorganisms. Tables I and II set forth the in vitro antibacterial test results for representative compounds of the present invention. The results were obtained with a standard disc plate assay using 12.5 mm paper discs.

S. schottmeulleri UC 126 = experiment: standard disc plate assay, zone of inhibition; settings: 12.5 mm paper discs
Description: as §7

B. subtilis UC 564 = experiment: standard disc plate assay, zone of inhibition; settings: 12.5 mm paper discs
Description: as §7

S. aureus UC 80 = experiment: standard disc plate assay, zone of inhibition; settings: 12.5 mm paper discs
Description: as §7

E. coli UC 51 = experiment: standard disc plate assay, zone of inhibition; settings: 12.5 mm paper discs
Description: as §7

S. lutea UC 130 = experiment: standard disc plate assay, zone of inhibition; settings: Micrococcus luteus, UC130, read-out: Zones of Inhibition
Description: as §7

B. cereus UC 3145 = experiment: standard disc plate assay, zone of inhibition; settings: 12.5 mm paper discs
Description: as §7

Ps. aeruginosa UC 95 [3] = experiment: standard disc plate assay, zone of inhibition; settings: 12.5 mm paper discs
Description: as §7

P. vulgaris UC 93 [4] = experiment: standard disc plate assay, zone of inhibition; settings: 12.5 mm paper discs
Description: as §7

K. pneumoniae UC 57 = experiment: standard disc plate assay, zone of inhibition; settings: 12.5 mm paper discs
Description: as §7

[5] = read-out: Minimal Inhibitory Concentration
[6] = read-out: Minimum Inhibitory Concentration

In the case of `NC[C@H]1O[C@H](O[C@H]2[C@H](O)[C@@H](O)[C@H](N)C[C@@H]2N)[C@H](N)[C@@H](O)[C@@H]1O` [Neamine], the MIC (S. aureus UC 76; [5]) is reported as 7.8 µg/mL (≈ 24.2 µM), the MIC (S. aureus UC 76; [6]) is reported as 3.9 µg/mL (≈ 12.1 µM) and the MIC (S. typhi UC 215; [5]) is reported as 31.2 µg/mL (≈ 96.8 µM). It also gave an MIC (S. typhi UC 215; [6]) of 15.6 µg/mL (≈ 48.4 µM), an MIC (K. pneumoniae UC 58; [5]) of 7.8 µg/mL (≈ 24.2 µM) and an MIC (K. pneumoniae UC 58; [6]) of 15.6 µg/mL (≈ 48.4 µM). It also gave an MIC (S. pyogenes UC 152; [5]) of 7.8 µg/mL (≈ 24.2 µM), an MIC (S. pyogenes UC 152; [6]) of 7.8 µg/mL (≈ 24.2 µM) and an MIC (S. schottmuelleri UC 126; [5]) of 15.6 µg/mL (≈ 48.4 µM). For the same molecule, the MIC (S. schottmuelleri UC 126; [6]) was 31.2 µg/mL (≈ 96.8 µM), the MIC (D. pneumoniae UC 41) was 62.5 µg/mL (≈ 194 µM) and the MIC (E. coli UC 311) was 125 µg/mL (≈ 388 µM). The MIC (S. faecalis UC 694; [5]) was > 500 µg/mL, the MIC (S. faecalis UC 694; [6]) was > 500 µg/mL and the MIC (P. mirabilis UC 6671; [5]) was 250 µg/mL (≈ 776 µM). The MIC (P. mirabilis UC 6671; [6]) was 62.5 µg/mL (≈ 194 µM), the MIC (P. morganii UC 3186; [5]) was 31.2 µg/mL (≈ 96.8 µM) and the MIC (P. morganii UC 3186; [6]) was 62.5 µg/mL (≈ 194 µM). For the same molecule, the MIC (Ps. aeruginosa UC 95 [1]; [5]) was > 500 µg/mL, the MIC (Ps. aeruginosa UC 95 [1]; [6]) was > 500 µg/mL and the MIC (P. rettgeri UC 339; [5]) was > 500 µg/mL. It also gave an MIC (P. rettgeri UC 339; [6]) of 250 µg/mL (≈ 776 µM), an MIC (S. flexneri UC 143; [5]) of 125 µg/mL (≈ 388 µM) and an MIC (S. flexneri UC 143; [6]) of 62.5 µg/mL (≈ 194 µM). The MIC (P. vulgaris UC 93 [2]; [5]) was 62.5 µg/mL (≈ 194 µM), the MIC (P. vulgaris UC 93 [2]; [6]) was 62.5 µg/mL (≈ 194 µM) and the MIC (E. coli UC 45) was 62.5 µg/mL (≈ 194 µM). For the same molecule, the MIC (S. marcescens UC 131; [5]) was 250 µg/mL (≈ 776 µM), the MIC (S. marcescens UC 131; [6]) was 250 µg/mL (≈ 776 µM) and the zone of inhibition at 100 µg/mL (S. gallinarum UC 265) was 19 mm. For the same molecule, the zone of inhibition at 1000 µg/mL (S. gallinarum UC 265) was 29 mm, the “Zones of Inhibition” value (S. schottmeulleri UC 126; 0.1 mg/ml) was 15 mm and the zone of inhibition at 100 µg/mL (S. schottmeulleri UC 126; 0.1 mg/ml, read-out: Zones of Inhibition) was 16 mm. For the same molecule, the “Zones of Inhibition” value (S. schottmeulleri UC 126; 1 mg/ml) was 23 mm, the zone of inhibition at 1000 µg/mL (S. schottmeulleri UC 126; 1 mg/ml, read-out: Zones of Inhibition) was 24 mm and the “Zones of Inhibition” value (B. subtilis UC 564; 0.1 mg/ml) was 28 mm. For the same molecule, the “Zones of Inhibition” value (B. subtilis UC 564; 1 mg/ml) was 37 mm, the zone of inhibition at 100 µg/mL (B. subtilis UC 564; Bacillus subtilis, UC564, read-out: Zones of Inhibition, 0.1 mg/ml) was 30 mm and the zone of inhibition at 1000 µg/mL (B. subtilis UC 564; Bacillus subtilis, UC564, read-out: Zones of Inhibition, 1 mg/ml) was 39 mm. For the same molecule, the “Zones of Inhibition” value (S. aureus UC 80; 0.1 mg/ml) was 18 mm, the “Zones of Inhibition” value (S. aureus UC 80; 1 mg/ml) was 26 mm and the zone of inhibition at 100 µg/mL (S. aureus UC 80; Staphylococcus aureus, UC80, read-out: Zones of Inhibition, 0.1 mg/ml) was 20 mm. The zone of inhibition at 1000 µg/mL (S. aureus UC 80; Staphylococcus aureus, UC80, read-out: Zones of Inhibition, 1 mg/ml) was 29 mm, the “Zones of Inhibition” value (E. coli UC 51; 0.1 mg/ml) was 18 mm and the “Zones of Inhibition” value (E. coli UC 51; 1 mg/ml) was 25 mm. The zone of inhibition at 100 µg/mL (E. coli UC 51; Escherichia coli, UC51, read-out: Zones of Inhibition, 0.1 mg/ml) was 19 mm, the zone of inhibition at 1000 µg/mL (E. coli UC 51; Escherichia coli, UC51, read-out: Zones of Inhibition, 1 mg/ml) was 27 mm and the zone of inhibition at 1000 µg/mL (S. lutea UC 130) was 17 mm. For the same molecule, the “Zones of Inhibition” value (B. cereus UC 3145; 1 mg/ml) was 23 mm, the zone of inhibition at 100 µg/mL (B. cereus UC 3145; Bacillus cereus, UC3145, read-out: Zones of Inhibition, 0.1 mg/ml) was 15 mm and the zone of inhibition at 1000 µg/mL (B. cereus UC 3145; Bacillus cereus, UC3145, read-out: Zones of Inhibition, 1 mg/ml) was 24 mm. For the same molecule, the “Zones of Inhibition” value (Ps. aeruginosa UC 95 [3]; 1 mg/ml) was 18 mm, the zone of inhibition at 1000 µg/mL (Ps. aeruginosa UC 95 [3]; Pseudomonas aeruginosa, UC95, read-out: Zones of Inhibition, 1 mg/ml) was 17 mm and the “Zones of Inhibition” value (P. vulgaris UC 93 [4]; 0.1 mg/ml) was 15 mm. For the same molecule, the “Zones of Inhibition” value (P. vulgaris UC 93 [4]; 1 mg/ml) was 28 mm, the zone of inhibition at 100 µg/mL (P. vulgaris UC 93 [4]; Proteus vulgaris, UC93, read-out: Zones of Inhibition, 0.1 mg/ml) was 18 mm and the zone of inhibition at 1000 µg/mL (P. vulgaris UC 93 [4]; Proteus vulgaris, UC93, read-out: Zones of Inhibition, 1 mg/ml) was 27 mm. For the same molecule, the “Zones of Inhibition” value (K. pneumoniae UC 57; 0.1 mg/ml) was 26 mm, the “Zones of Inhibition” value (K. pneumoniae UC 57; 1 mg/ml) was 32 mm and the zone of inhibition at 100 µg/mL (K. pneumoniae UC 57; Klebsiella pneumoniae, UC57, read-out: Zones of Inhibition, 0.1 mg/ml) was 27 mm. It also gave a zone of inhibition at 1000 µg/mL (K. pneumoniae UC 57; Klebsiella pneumoniae, UC57, read-out: Zones of Inhibition, 1 mg/ml) of 34 mm.
